Tests used:
Male C57BL/6j mice = assay: Concanavalin A mouse model treated with allosteric enhancer; erection observed; type: in vivo; settings: 100 μg/kg orally 8 h after Con.A and 2 h before termination, no signs in control-untreated group
Method: Male C57BL/6j mice, 8 weeks of age, were injected intravenously (tail vein) with concanavalin A (Con.A) (20 mg/kg). twenty four hours after Con.A injection, levels of alanine aminotransferase (ALT) and aspirate aminotransferase (AST) were measured in the serum.
The allosteric compound, Luf6000 (also known as N-(3,4-dichloro-phenyl)-2-cyclohexyl-1H-imidazo[4,5-c]quinolin-4-amine), was orally administered at a dose of 100 μg/kg 8 h after Con.A administration and 2 h before termination.

[1] = test system: patients with moderated to severe Plaque Psoriasis (PS); assay: Phase 2 study of oral CF101 in Plaque Psoriasis; sexual effects; type: in vivo, human; settings: CF101 1 mg, 2 mg and 4 mg orally twice daily for 12 weeks
Method: In a further Phase 2 study, randomized, double-blind, dose-ranging, placebo-controlled study was conducted to determine safety and activity of CF101 administered orally in patients with moderated to severe Plaque Psoriasis (PS). CF101 was administered at 1 mg. 2 mg and 4 mg twice daily for 12 weeks.

[2] = test system: patients with active rheumatoid arthritis (RA); assay: Phase 2 study of oral CF101 added to weekly Methotrexate in rheumatoid arthritis; sexual effects; type: in vivo, human; settings: CF101 0.1 mg or 1 mg tablets orally every 12 h for 12 weeks, with weekly MTX
Method: Phase 2 study in patients with active rheumatoid arthritis (RA) (randomized, double-blind, placebo-controlled), treated in parallel with CF101 administrated orally when added to weekly Methotrexate (MTX). The patients were given CF101 either 0.1 mg or 1 mg tablets or placebo tablets, taken orally every 12 h for 12 weeks. Washout of other disease-modifying antirheumatic drugs (DMARDs), including biological agents was occurring prior to dosing.

[3] = test system: Patients with Moderate-to-Severe Dry Eye Disease; assay: Phase 3 clinical study of oral CF101 in dry eye disease; patient-reported sexual effects; type: in vivo, human
Source text: The clinical study (the “Study”) was a Phase 3, Randomized, Double-Masked, Placebo-Controlled, Dose-Finding, Parallel-Group Study of the Safety and Efficacy of Daily CF101 Administered Orally in Patients with Moderate-to-Severe Dry Eye Disease, keratoconjunctivitis sicca (KCS). CF101 is an experimental pharmaceutical composition where the active ingredient is IB-MECA. The study had two primary objectives: (i) determine the efficacy of oral administered CF101, as compared to placebo, when administered at doses of either 0.1 mg or 1.0 mg (namely 0.1 and 1 mg of IB-MECA per each administration, respectively) twice daily for 24 weeks in patients with KCS, and (ii) determine the safety of this drug in the patients. Patients were randomized to receive pills of either CF101 0.1 mg, CF101 1.0 mg, or matching placebo, given orally twice daily (BID) for 24 weeks. A Screening Period of up to 4 weeks that includes a 2-week run-in period that preceded the 24-week treatment period, followed by a 2-week follow-up period. The patients that were enrolled in the study had to meet a number of inclusion criteria (namely criteria that had to be matched for a human subject to participate in the study), including (i) being 18 years of age and over, (ii) being diagnosed with moderate-to-severe Aqueous-Deficient Dry Eye (including Sjögren's Syndrome dry eye), as defined by acceptable clinical criteria, and (iii) a variety of other criteria. Patients that met certain exclusion criteria that related to certain ophthalmic conditions and use of other medications. Clinical outcome in improving KCS symptoms was determined through a variety of relevant ophthalmic parameters. In addition, adverse events were recorded for each patient throughout the study and all effects reported by patients were reported. By the time of filing this patent application the study was still ongoing. […] It should be noted that at this time of reporting of these events the study was still masked, namely it is not known whether the patients received CF101 or placebo and if CF101 than the dose of the drug.

Compound	erection in treated mice (Male C57BL/6j mice)	erection in treated mice (Male C57BL/6j mice; listed as LUF6000)	erection or increase in sexual desire in patients [1]	erection or increase in sexual desire in patients [2]	erection or increase in sexual desire in patients ([3]; oral CF101, patients with moderate to severe dry eye disease (summary statement))	period during which erection occurred every day after each intake ([3]; patient)	sexual potency reported by patient ([3]; patient (code 104507), oral, twice daily, 0.1 mg or 1 mg, study still masked)	time after intake to unprovoked erection ([3]; patient, after each CF101 intake)	erection reported by patient after intake ([3]; patient, oral, twice daily, 0.1 mg or 1 mg, study still masked)
Clc1ccc(Nc2nc3ccccc3c3[nH]c(C4CCCCC4)nc23)cc1Cl [Luf6000, N-(3,4-dichloro-phenyl)-2-cyclohexyl-1H-imidazo[4,5-c]quinolin-4-amine]	erection was noticed	exhibited erection							
CNC(=O)[C@H]1O[C@@H](n2cnc3c(NCc4cccc(I)c4)ncnc32)[C@H](O)[C@@H]1O [CF101, N^6-(3-iodobenzyl)-adenosine-5′-N-methyluronamide]			some of the patients experienced erection or increase in sexual desire	some of the patients experienced erection or increase in sexual desire	some of the patients experienced erection or increase in sexual desire	about 10 days	increase of sexual potency	around 30 minutes	unprovoked erection
